Experimental data as given in US12338270B2, “Pharmaceutical composition comprising polypeptide” (D&D Pharmatech Inc., priority 2018, dated 2025).
Non-standard residues stand in square brackets, D forms with d. No end group written: not given here. tri‑branched mPEG‑MAL 50 kDa = tri-branched maleimide-activated monomethoxy PEG, 50 kDa; Aib = CC(C)(N)C(=O)O

How the values were obtained:
Format in all cases: in vivo
[1] = test system: obesity animal model (C57BL/6 mice, 60% high-fat diet); assay: body weight, food intake and blood glucose in high-fat diet obesity animal model (Experimental Example 2); conditions: for Blood glucose / Body weight / Food intake: 20 nmol/kg s.c. once every other day; for Food intake: cumulative
Protocol: First, an obesity animal model was prepared by feeding a 60% high-fat diet to normal C57BL/6 mice (approximately 6 weeks old) for approximately 24 weeks, and increasing the body weights of the mice to approximately 50 g on average. Thereafter, the conjugate of Example 2 was administered by subcutaneous injection at a dose of 20 nmol/kg once every other day for 2 weeks. […] For 2 weeks when the drug was administered, the food intake, the blood glucose, and the body weights were measured once every other day at given points of time.
In this case, the body weights and the blood glucose were expressed in the percentage (%) on the basis of 100% before the administration (Day 0).

[2] = test system: obesity animal model (C57BL/6 mice, 60% high-fat diet); assay: intraperitoneal glucose tolerance test (ipGTT) in obesity model after 2-week administration (Experimental Example 3); set-up: blood glucose in ipGTT: unit not given here; conditions: after 2 weeks of 20 nmol/kg s.c. once every other day
Protocol: This experiment was performed in the same manner as in Experimental Example 2, and then the glucose tolerance was evaluated in a mouse model using an intraperitoneal glucose tolerance test (ipGTT).
After the 2-weeks administration of the drugs was completed in the same manner as in Experimental Example 2, 2 g/kg of glucose was administered intraperitoneally to measure a change in blood glucose with the elapse of time (0, 15, 30, 60, 90, and 120 minutes).

[3] = test system: obesity animal model (C57BL/6 mice, 60% high-fat diet); assay: final body weight with different dose and dosing frequency in obesity model (Experimental Example 5); conditions: FIG. 4
Protocol: First, an obesity animal model was prepared by feeding a 60% high-fat diet to normal C57BL/6 mice (approximately 6 weeks old) for approximately 24 weeks, and increasing the body weights of the mice to approximately 50 g in average. After 2 weeks, the final body weights of the mice were measured.

[4] = test system: obesity animal model (C57BL/6 mice, 60% high-fat diet); assay: blood glucose in obesity model, Examples 2 and 6 (Experimental Example 6); conditions: 20 nmol/kg s.c. once every other day for 2 weeks; FIG. 5
Protocol: To check a preventing or therapeutic effect of the conjugates of Examples 2 and 6, which had different amino acid sequences, on obesity or diabetes, an animal model of obesity was prepared by feeding a 60% high-fat diet to normal C57BL/6 mice (approximately 6 weeks old) for approximately 24 weeks, and increasing the body weights of the mice to approximately 50 g in average. Thereafter, each of the conjugates of Examples 2 or 6 was administered by subcutaneous injection at a dose of 20 nmol/kg once every other day for 2 weeks. As the control, PBS was administered instead of the conjugates of Examples. For 2 weeks when the conjugates of Examples 2 or 6 were administered, changes in blood glucose with time were measured. Also, to perform an intraperitoneal glucose tolerance test (ipGTT), 2 g/kg of glucose was administered intraperitoneally after the 2-week administration of the drug, and changes in blood glucose with the elapse of time (0, 15, 30, 60, 90, and 120 minutes) were measured.

[5] = test system: animal model of non-alcoholic fatty liver diseases (C57BL/6 mice, 60% high-fat diet); assay: non-alcoholic fatty liver disease model, 60% high-fat diet (Experimental Example 7); conditions: 20 nmol/kg s.c. once every other day for 2 weeks
Protocol: Specifically, first of all, a laboratory animal model of non-alcoholic fatty liver diseases was prepared by feeding a 60% high-fat diet to normal C57BL/6 mice (approximately 6 weeks old) for approximately 24 weeks, and increasing the body weights of the mice to approximately 50 g in average. Thereafter, the conjugate of Example 2 was administered by subcutaneous injection at a dose of 20 nmol/kg once every other day for 2 weeks. […] After the 2-week administration of the drug, blood was collected from the mice to measure a serum cholesterol concentration, and the livers were extracted, weighed, embedded in paraffin, and then microtomed into thin slices. Thereafter, the liver biopsy was conducted using a hematoxylin & eosin (H&E).

[6] = test system: animal model of non-alcoholic fatty liver diseases (C57BL/6 mice, high-trans-fat diet); assay: non-alcoholic fatty liver disease model, high-trans-fat diet (Experimental Example 8); conditions: 20 nmol/kg s.c. once every three days for 4 weeks, also lowered vs liraglutide
Protocol: First of all, a laboratory animal model of non-alcoholic fatty liver diseases was prepared by feeding a high-trans-fat diet, which contained 40% high fats, 20% fructose, and 2% cholesterol, to normal C57BL/6 mice (approximately 6 weeks old) for approximately 16 weeks. Thereafter, the conjugate of Example 2 was administered by subcutaneous injection at a dose of 20 nmol/kg once every three days for 4 weeks. […] After the 4-week experiment was completed, a level of serum cholesterol, the liver weights, and the hepatic triglycerides (hepatic TGs) were measured.

[7] = test system: animal model of non-alcoholic fatty liver diseases (C57BL/6 mice, high-trans-fat diet); assay: liver biopsy and NAFLD activity score, high-trans-fat diet model (Experimental Example 9); conditions: 20 nmol/kg s.c. once every three days for 4 weeks
Protocol: After the experiment was conducted in the same manner as in Experimental Example 8, a liver biopsy was conducted and an NAFLD activity score (NAS) was measured to check a preventing or therapeutic effect on non-alcoholic fatty liver diseases. An experiment was performed in the same manner as in Experimental Example 8, after the 4-week administration of the conjugate of Example 2, the mouse livers were extracted, embedded in paraffin, and then microtomed into thin slices. Thereafter, a hematoxylin & eosin (H&E) stain and an oil-red-O stain were conducted.

[8] = 20 nmol/kg s.c. once every other day for 2 weeks
[9] = day 0 (before administration = 100%)

## Example 2: Conjugate of polypeptide H(Aib)QGTFTSDYSKYLDEQAAKEFVQWLMNTC (SEQ ID NO. 2) and tri-branched mPEG-MAL (MW: 50 kDa) (H[Aib]QGTFTSDYSKYLDEQAAKEFVQWLMNTC(tri‑branched mPEG‑MAL 50 kDa); lactam (positions not given here); not fully specified (bridges); printed as H(Aib)QGTFTSDYSKYLDEQAAKEFVQWLMNTC)
[1]; [8]
  level of blood glucose reduced compared to before the administration: approximately 80%
[1]; [9]
  Blood glucose: 100%
  Body weight: 100%
[1]; day 0
  Food intake: 0 g
[1]; day 2, % of Day 0
  Blood glucose: 87%
  Body weight: 97%
[1]; day 2
  Food intake: 4 g
[1]; day 4, % of Day 0
  Blood glucose: 75%
  Body weight: 94%
[1]; day 4
  Food intake: 8 g
[1]; day 6, % of Day 0
  Blood glucose: 48%
  Body weight: 89%
[1]; day 6
  Food intake: 11 g
[1]; day 8, % of Day 0
  Blood glucose: 32%
  Body weight: 82%
[1]; day 8
  Food intake: 13 g
[1]; day 10, % of Day 0
  Blood glucose: 35%
  Body weight: 74%
[1]; day 10
  Food intake: 15 g
[1]; day 12, % of Day 0
  Blood glucose: 32%
  Body weight: 68%
[1]; day 12
  Food intake: 17 g
[1]; day 14, % of Day 0
  Blood glucose: 18%
  Body weight: 61%
[2]; 0 min after 2 g/kg glucose i.p.
  blood glucose in ipGTT: 40
[2]; 15 min after 2 g/kg glucose i.p.
  blood glucose in ipGTT: 216
[2]; 30 min after 2 g/kg glucose i.p.
  blood glucose in ipGTT: 172
[2]; 60 min after 2 g/kg glucose i.p.
  blood glucose in ipGTT: 61
[2]; 90 min after 2 g/kg glucose i.p.
  blood glucose in ipGTT: 48
[2]; 120 min after 2 g/kg glucose i.p.
  blood glucose in ipGTT: 44
[2]
  increase in blood glucose in ipGTT vs non-treated group: an increase in blood glucose was significantly reduced
[3]; [8]
  effect on body weight loss: significant effect on the body weight loss
[3]; 40 nmol/kg s.c. once a week for 2 weeks
  effect on body weight loss with extended interval: the same effect on the body weight loss
[3]; 20 vs 40 nmol/kg s.c. once every other day for 2 weeks
  dose dependence of body weight loss: dose-dependent response
[4]
  level of blood glucose vs control: a level of blood glucose was lowered
[5]; H&E, also reduced vs liraglutide, FIG. 9
  hepatic steatosis in liver biopsy vs non-treated group: significantly reduced
[5]; also lowered vs liraglutide, FIG. 7
  level of serum cholesterol vs non-treated group: significantly lowered
[5]; also lowered vs liraglutide, FIG. 8
  liver weights vs non-treated group: significantly lowered
[6]; FIG. 10
  level of serum cholesterol vs non-treated group: significantly lowered
[6]; FIG. 11
  liver weights vs non-treated group: significantly lowered
[6]; FIG. 12
  hepatic triglycerides vs non-treated group: significantly lowered
[7]; FIG. 13
  hepatic steatosis vs non-treated group and positive control: significantly reduced
[7]; FIG. 14
  NAFLD activity score (NAS) vs non-treated group and positive control: significantly reduced
